The source of these data is PubChem BioAssay AID1963845 (Molecular Pharmacology Branch, DTP, NCI, 2024).
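Also: luminescence signal used as surrogate measure of viable cells; spheroids exposed to compounds for seven days before readout; 100% = DMSO vehicle control viability as luminescence relative to vehicle.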

The first assay has as its system 429239-143-T-J1-PDC complex spheroid viability. Nature of the assay: Anticancer human tumor 429239-143-T-J1-PDC patient-derived small cell lung carcinoma cell line growth inhibition [POLQ]. To be noted: second compound 0.316 µM; first compound 1 µM; active compounds read low. The procedure, abridged:
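Patient-derived tumour cells were co-cultured with HUVEC and mesenchymal stem cells as multicellular spheroids at 37 °C. They were treated with POLQ inhibitors (novobiocin, ART-558, RP6685) alone or combined with other agents. Top concentrations were at or near clinical Cmax (otherwise 10 microM; SN-38 at 1 microM), decreasing in half-log steps.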
The term viability, T/C denotes the result in the treated group divided by that in the control group, in per cent. As to `C#Cc1c(F)ccc2cc(O)cc(-c3ncc4c(N5CC6CCC(C5)N6)nc(OCC56CCCN5CC(F)C6)nc4c3F)c12` (stereo unspecified) + Cc1cccc(N(C)C(=O)C2C(O)CCN2c2nc(C)cc(C(F)(F)F)c2C#N)c1, the viability, T/C is 93.8%.

As for `CC1COCCN1c1cc(-c2ccnn2C)c2ccnc(-c3ccn[nH]3)c2n1` (stereo unspecified) + Cc1cccc(N(C)C(=O)C2C(O)CCN2c2nc(C)cc(C(F)(F)F)c2C#N)c1, the viability, T/C is 12.9%.

Take `COc1cc2cc(C(=O)CCC(=O)O)sc2cc1OC` + Cc1cccc(N(C)C(=O)C2C(O)CCN2c2nc(C)cc(C(F)(F)F)c2C#N)c1: the viability, T/C is 106%.

`CC1COCCN1c1cc(-c2ccnn2C)c2ccnc(-c3ccn[nH]3)c2n1` (stereo unspecified) + Nc1ccc(C#CCN(C(=O)Cc2ncc(C(F)(F)F)cc2C(F)(F)F)c2ccc(F)cc2)nn1: the viability, T/C is 24.5%.

For `COc1cccc2c1C(=O)c1c(O)c3c(c(O)c1C2=O)CC(O)(C(=O)CO)CC3OC1CC(N)C(O)C(C)O1` (stereo unspecified) + Nc1ccc(C#CCN(C(=O)Cc2ncc(C(F)(F)F)cc2C(F)(F)F)c2ccc(F)cc2)nn1, the viability, T/C was 0.74%.

The assay is the same for the next values; noted with them: second compound 0.316 µM; first compound 3.16 µM; active compounds read low.
Regarding `C#Cc1c(F)ccc2cc(O)cc(-c3ncc4c(N5CC6CCC(C5)N6)nc(OCC56CCCN5CC(F)C6)nc4c3F)c12` (stereo unspecified) + Cc1cccc(N(C)C(=O)C2C(O)CCN2c2nc(C)cc(C(F)(F)F)c2C#N)c1, the viability, T/C is 89.2%.

`CC1COCCN1c1cc(-c2ccnn2C)c2ccnc(-c3ccn[nH]3)c2n1` (stereo unspecified) + Cc1cccc(N(C)C(=O)C2C(O)CCN2c2nc(C)cc(C(F)(F)F)c2C#N)c1: the viability, T/C is 9.82%.

On to `COc1cc2cc(C(=O)CCC(=O)O)sc2cc1OC` + Cc1cccc(N(C)C(=O)C2C(O)CCN2c2nc(C)cc(C(F)(F)F)c2C#N)c1, for which the viability, T/C is 96%.

On to `CC1COCCN1c1cc(-c2ccnn2C)c2ccnc(-c3ccn[nH]3)c2n1` (stereo unspecified) + Nc1ccc(C#CCN(C(=O)Cc2ncc(C(F)(F)F)cc2C(F)(F)F)c2ccc(F)cc2)nn1, for which the viability, T/C was 5.31%.

In the case of `COc1cccc2c1C(=O)c1c(O)c3c(c(O)c1C2=O)CC(O)(C(=O)CO)CC3OC1CC(N)C(O)C(C)O1` (stereo unspecified) + Nc1ccc(C#CCN(C(=O)Cc2ncc(C(F)(F)F)cc2C(F)(F)F)c2ccc(F)cc2)nn1, the viability, T/C was 0.05%.

Still in this assay, the particulars now being: second compound 0.316 µM; first compound 10 µM; active compounds read low.
As to `C#Cc1c(F)ccc2cc(O)cc(-c3ncc4c(N5CC6CCC(C5)N6)nc(OCC56CCCN5CC(F)C6)nc4c3F)c12` (stereo unspecified) + Cc1cccc(N(C)C(=O)C2C(O)CCN2c2nc(C)cc(C(F)(F)F)c2C#N)c1, the viability, T/C was 93.5%.

For the compound `CC1COCCN1c1cc(-c2ccnn2C)c2ccnc(-c3ccn[nH]3)c2n1` (stereo unspecified) + Cc1cccc(N(C)C(=O)C2C(O)CCN2c2nc(C)cc(C(F)(F)F)c2C#N)c1, the viability, T/C was 8.22%.

With `COc1cc2cc(C(=O)CCC(=O)O)sc2cc1OC` + Cc1cccc(N(C)C(=O)C2C(O)CCN2c2nc(C)cc(C(F)(F)F)c2C#N)c1, the viability, T/C was 90.1%.

Turning to `CC1COCCN1c1cc(-c2ccnn2C)c2ccnc(-c3ccn[nH]3)c2n1` (stereo unspecified) + Nc1ccc(C#CCN(C(=O)Cc2ncc(C(F)(F)F)cc2C(F)(F)F)c2ccc(F)cc2)nn1, the viability, T/C is 3.76%.

Consider `COc1cccc2c1C(=O)c1c(O)c3c(c(O)c1C2=O)CC(O)(C(=O)CO)CC3OC1CC(N)C(O)C(C)O1` (stereo unspecified) + Nc1ccc(C#CCN(C(=O)Cc2ncc(C(F)(F)F)cc2C(F)(F)F)c2ccc(F)cc2)nn1, for which the viability, T/C is 0.19%.

The same assay, now with this note: second compound 1 µM; first compound 0.0316 µM; active compounds read low.
Take `C#Cc1c(F)ccc2cc(O)cc(-c3ncc4c(N5CC6CCC(C5)N6)nc(OCC56CCCN5CC(F)C6)nc4c3F)c12` (stereo unspecified) + Cc1cccc(N(C)C(=O)C2C(O)CCN2c2nc(C)cc(C(F)(F)F)c2C#N)c1: the viability, T/C was 101%.

As for `CC1COCCN1c1cc(-c2ccnn2C)c2ccnc(-c3ccn[nH]3)c2n1` (stereo unspecified) + Cc1cccc(N(C)C(=O)C2C(O)CCN2c2nc(C)cc(C(F)(F)F)c2C#N)c1, the viability, T/C was 86.3%.

Take `COc1cc2cc(C(=O)CCC(=O)O)sc2cc1OC` + Cc1cccc(N(C)C(=O)C2C(O)CCN2c2nc(C)cc(C(F)(F)F)c2C#N)c1: the viability, T/C was 99.8%.

For the compound `CC1COCCN1c1cc(-c2ccnn2C)c2ccnc(-c3ccn[nH]3)c2n1` (stereo unspecified) + Nc1ccc(C#CCN(C(=O)Cc2ncc(C(F)(F)F)cc2C(F)(F)F)c2ccc(F)cc2)nn1, the viability, T/C is 86.8%.

For `COc1cccc2c1C(=O)c1c(O)c3c(c(O)c1C2=O)CC(O)(C(=O)CO)CC3OC1CC(N)C(O)C(C)O1` (stereo unspecified) + Nc1ccc(C#CCN(C(=O)Cc2ncc(C(F)(F)F)cc2C(F)(F)F)c2ccc(F)cc2)nn1, the viability, T/C was 83.1%.

The same assay, now with this note: second compound 1 µM; first compound 0.1 µM; active compounds read low.
On to `C#Cc1c(F)ccc2cc(O)cc(-c3ncc4c(N5CC6CCC(C5)N6)nc(OCC56CCCN5CC(F)C6)nc4c3F)c12` (stereo unspecified) + Cc1cccc(N(C)C(=O)C2C(O)CCN2c2nc(C)cc(C(F)(F)F)c2C#N)c1, for which the viability, T/C was 108%.

`CC1COCCN1c1cc(-c2ccnn2C)c2ccnc(-c3ccn[nH]3)c2n1` (stereo unspecified) + Cc1cccc(N(C)C(=O)C2C(O)CCN2c2nc(C)cc(C(F)(F)F)c2C#N)c1: the viability, T/C is 44.1%.

For `COc1cc2cc(C(=O)CCC(=O)O)sc2cc1OC` + Cc1cccc(N(C)C(=O)C2C(O)CCN2c2nc(C)cc(C(F)(F)F)c2C#N)c1, the viability, T/C is 99.1%.

For the compound `CC1COCCN1c1cc(-c2ccnn2C)c2ccnc(-c3ccn[nH]3)c2n1` (stereo unspecified) + Nc1ccc(C#CCN(C(=O)Cc2ncc(C(F)(F)F)cc2C(F)(F)F)c2ccc(F)cc2)nn1, the viability, T/C was 72%.

In the case of `COc1cccc2c1C(=O)c1c(O)c3c(c(O)c1C2=O)CC(O)(C(=O)CO)CC3OC1CC(N)C(O)C(C)O1` (stereo unspecified) + Nc1ccc(C#CCN(C(=O)Cc2ncc(C(F)(F)F)cc2C(F)(F)F)c2ccc(F)cc2)nn1, the viability, T/C is 38.2%.

Still in this assay, the particulars now being: second compound 1 µM; first compound 0.316 µM; active compounds read low.
For `C#Cc1c(F)ccc2cc(O)cc(-c3ncc4c(N5CC6CCC(C5)N6)nc(OCC56CCCN5CC(F)C6)nc4c3F)c12` (stereo unspecified) + Cc1cccc(N(C)C(=O)C2C(O)CCN2c2nc(C)cc(C(F)(F)F)c2C#N)c1, the viability, T/C was 105%.
